The target in assay [1] is T1, Tyrosine-protein phosphatase non-receptor type 1 (Homo sapiens, UniProt P18031).
T1 sequence (P18031 whole entry): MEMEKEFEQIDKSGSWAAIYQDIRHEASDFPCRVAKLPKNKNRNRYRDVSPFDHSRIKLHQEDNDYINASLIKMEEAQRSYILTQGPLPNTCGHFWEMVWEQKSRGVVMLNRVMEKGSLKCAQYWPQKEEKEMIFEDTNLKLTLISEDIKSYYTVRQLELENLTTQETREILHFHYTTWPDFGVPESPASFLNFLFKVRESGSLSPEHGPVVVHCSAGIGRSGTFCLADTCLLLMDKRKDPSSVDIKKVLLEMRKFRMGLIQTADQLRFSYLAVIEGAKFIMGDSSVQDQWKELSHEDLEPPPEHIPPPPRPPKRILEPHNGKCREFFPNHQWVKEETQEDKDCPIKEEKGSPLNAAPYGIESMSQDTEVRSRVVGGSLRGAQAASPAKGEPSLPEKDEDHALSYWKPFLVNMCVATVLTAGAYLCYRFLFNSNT
Kind of assay: Protein-tyrosine phosphatase 1B (PTP 1B) site 2 Ligands were identified using [13C]-labeled protein and their Dissociation Constants were determined.

Assay [2] addresses Tyrosine-protein phosphatase non-receptor type 2 (Homo sapiens, UniProt P17706). Kind of assay: Inhibitory constant against T cell protein tyrosine phosphatase. The format is single protein.
For assay [3], the target named is T1, Tyrosine-protein phosphatase non-receptor type 1. Kind of assay: Inhibitory activity against Protein-tyrosine phosphatase 1B (PTP 1B) was determined.
The target of assay [4] is T2, Receptor-type tyrosine-protein phosphatase C (Homo sapiens, UniProt P08575).
T2 sequence (P08575 whole entry): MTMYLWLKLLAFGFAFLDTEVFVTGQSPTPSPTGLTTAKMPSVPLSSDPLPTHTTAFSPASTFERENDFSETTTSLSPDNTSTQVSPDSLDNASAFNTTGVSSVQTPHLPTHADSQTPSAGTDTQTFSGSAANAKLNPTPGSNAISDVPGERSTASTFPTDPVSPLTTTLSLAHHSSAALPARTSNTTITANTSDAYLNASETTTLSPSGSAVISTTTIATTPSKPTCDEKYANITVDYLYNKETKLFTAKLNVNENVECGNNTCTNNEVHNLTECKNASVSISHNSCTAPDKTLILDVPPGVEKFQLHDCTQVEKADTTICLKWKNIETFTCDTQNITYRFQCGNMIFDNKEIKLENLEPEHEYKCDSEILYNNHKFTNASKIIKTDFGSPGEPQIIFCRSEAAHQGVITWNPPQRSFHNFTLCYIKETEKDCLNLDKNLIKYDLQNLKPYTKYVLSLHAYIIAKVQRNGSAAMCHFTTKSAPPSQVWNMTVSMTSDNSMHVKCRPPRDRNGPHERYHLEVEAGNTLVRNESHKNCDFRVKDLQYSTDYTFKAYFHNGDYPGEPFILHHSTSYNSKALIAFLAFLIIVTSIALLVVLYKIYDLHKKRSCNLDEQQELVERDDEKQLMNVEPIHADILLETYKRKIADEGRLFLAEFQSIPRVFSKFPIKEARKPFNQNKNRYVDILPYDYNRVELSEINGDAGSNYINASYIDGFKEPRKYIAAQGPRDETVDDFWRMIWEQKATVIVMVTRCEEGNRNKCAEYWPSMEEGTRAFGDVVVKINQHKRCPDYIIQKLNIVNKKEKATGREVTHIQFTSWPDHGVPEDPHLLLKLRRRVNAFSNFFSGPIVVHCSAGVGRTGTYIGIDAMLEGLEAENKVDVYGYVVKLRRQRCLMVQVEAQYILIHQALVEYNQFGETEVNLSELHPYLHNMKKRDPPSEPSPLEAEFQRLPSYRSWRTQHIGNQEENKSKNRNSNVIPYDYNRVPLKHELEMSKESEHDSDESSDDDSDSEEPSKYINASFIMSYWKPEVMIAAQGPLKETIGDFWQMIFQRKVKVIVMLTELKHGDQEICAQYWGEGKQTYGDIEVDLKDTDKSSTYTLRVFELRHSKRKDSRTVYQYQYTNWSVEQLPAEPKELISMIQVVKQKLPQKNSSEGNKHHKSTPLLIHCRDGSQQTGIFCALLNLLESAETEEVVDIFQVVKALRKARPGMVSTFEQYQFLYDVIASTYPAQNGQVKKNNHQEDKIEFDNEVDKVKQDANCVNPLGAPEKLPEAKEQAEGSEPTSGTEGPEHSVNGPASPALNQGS
Kind of assay: Inhibitory activity against CD45 tyrosine phosphatase was determined.

For assay [5], the target named is Protein phosphatase 3 catalytic subunit alpha (Homo sapiens, UniProt Q08209). Kind of assay: Inhibitory activity against (calcineurin) was determined.
Assay [6] has as its target T3, M-phase inducer phosphatase 3 (Homo sapiens, UniProt P30307).
T3 sequence (P30307 whole entry): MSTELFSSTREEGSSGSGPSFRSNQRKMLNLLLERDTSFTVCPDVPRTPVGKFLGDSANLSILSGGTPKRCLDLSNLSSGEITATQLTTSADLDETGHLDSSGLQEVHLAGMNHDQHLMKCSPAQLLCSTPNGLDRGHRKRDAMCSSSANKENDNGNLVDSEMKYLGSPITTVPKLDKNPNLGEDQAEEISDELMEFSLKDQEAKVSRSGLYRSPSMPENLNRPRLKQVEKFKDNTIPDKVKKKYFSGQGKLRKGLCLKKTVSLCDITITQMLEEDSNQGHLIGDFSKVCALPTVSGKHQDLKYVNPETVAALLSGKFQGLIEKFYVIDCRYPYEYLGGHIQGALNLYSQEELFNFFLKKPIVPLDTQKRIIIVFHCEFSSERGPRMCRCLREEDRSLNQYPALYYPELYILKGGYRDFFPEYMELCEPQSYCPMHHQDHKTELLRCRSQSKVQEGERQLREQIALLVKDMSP
As to the kind of experiment: Inhibitory activity against Cell division cycle 25 degree C was determined.

Assay [7] is described as follows: Inhibitory activity against Leukocyte antigen related Tyrosine Phosphatase (Receptor linked protein tyrosine phosphatase LAR) was determined.
In assay [8] the target is T3, M-phase inducer phosphatase 3. As to the kind of experiment: Inhibitory activity against cell division cycle 25 degree C (Cdc25 C) was determined.

pKd, pKi: −log10 of the molar value.

Sequence of Tyrosine-protein phosphatase non-receptor type 2 (P17706 whole entry, looked up): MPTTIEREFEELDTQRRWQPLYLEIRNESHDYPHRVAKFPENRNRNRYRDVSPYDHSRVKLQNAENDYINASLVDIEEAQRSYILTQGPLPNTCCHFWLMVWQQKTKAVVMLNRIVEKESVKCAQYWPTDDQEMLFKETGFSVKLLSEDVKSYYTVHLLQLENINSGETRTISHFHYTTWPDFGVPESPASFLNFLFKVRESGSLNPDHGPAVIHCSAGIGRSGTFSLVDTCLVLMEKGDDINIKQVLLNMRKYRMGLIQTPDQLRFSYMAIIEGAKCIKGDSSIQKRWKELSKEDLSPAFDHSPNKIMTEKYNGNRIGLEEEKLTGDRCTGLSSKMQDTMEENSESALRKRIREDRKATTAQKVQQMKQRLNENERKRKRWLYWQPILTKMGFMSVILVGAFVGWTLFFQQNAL

Regarding `N#Cc1cc(C(=O)O)c(O)c(Br)c1N`, the negative logarithm of the Kd (pKd) in assay [1] was 3.04.

For the molecule `CCc1cc(CC(NC(C)=O)C(=O)NCCCCOc2cccc(O)c2C(=O)NC)ccc1N(C(=O)C(=O)O)c1ccccc1C(=O)O` (stereo not drawn), the negative logarithm of the Ki (pKi) is 6.08 in assay [2] and 6.43 in assay [3].

Take `CCc1cc(CC(NC(C)=O)C(=O)NCCCCOc2cccc(O)c2C(=O)O)ccc1N(C(=O)C(=O)O)c1ccccc1C(=O)O` (stereo not drawn): the negative-log Ki (pKi) is 7.14 in assay [2] and 7.38 in assay [3].

As for `CCc1cc(CC(NC(C)=O)C(=O)NCCCCOc2cccc(O)c2[N+](=O)[O-])ccc1N(C(=O)C(=O)O)c1ccccc1C(=O)O` (stereo not drawn), the negative logarithm of the Ki (pKi) in assay [2] was 6.92; in assay [3] it was 6.89.

Regarding `CCc1cc(CC(NC(C)=O)C(=O)NCCCCOc2ccccc2C(=O)OC)ccc1N(C(=O)C(=O)O)c1ccccc1C(=O)O` (stereo not drawn), the pKi was 6.07 in assay [2] and 5.80 in assay [3].

Molecule `NC(=O)[C@H](Cc1ccc(C(F)(F)P(=O)(O)O)cc1)NC(=O)[C@H](CC(=O)O)NC(=O)Cc1ccc(C(F)(F)P(=O)(O)O)cc1` gave a pKi in assay [2] of 7.62.

`C=CCOC(=O)N[C@@H](Cc1ccc(N(C(=O)C(=O)O)c2ccccc2C(=O)O)cc1)C(=O)NCCCCOc1cccc(O)c1C(=O)OC`: the negative-log Ki (pKi) in assay [4] was below 3.70; in assay [5], below 3.70; in assay [2] it was 6.33; in assay [6] it was 3.75; in assay [7], 4.48.

On to `CCc1cc(CC(NC(C)=O)C(=O)NCCCCOc2ccc(-c3ccccc3)c(O)c2C(=O)OC)ccc1N(C(=O)C(=O)O)c1ccccc1C(=O)O` (stereo not drawn), for which the pKi in assay [2] is 6.08; in assay [3], 6.25.

Consider `CCc1cc(CC(NC(C)=O)C(=O)NCCCCOc2cc(Cl)cc(O)c2C(=O)OC)ccc1N(C(=O)C(=O)O)c1ccccc1C(=O)O` (stereo not drawn), for which the pKi is below 5.52 in assay [4]; below 5.52 in assay [5]; 6.64 in assay [2]; below 5.52 in assay [7]; below 5.52 in assay [8]; 7.40 in assay [3].

With `Nc1ccc(C(=O)O)c(O)c1` [AMINOSALICYLIC ACID], in assay [1], the pKd is 2.92.

In turn, `CCc1cc(CC(NC(C)=O)C(=O)NCCCCOc2cccc(O)c2C(=O)OC)ccc1N(C(=O)C(=O)O)c1ccccc1C(=O)O` (stereo not drawn) showed a pKi in assay [2] of 7.19.

Molecule `Cc1cc(C)c2nc(C(=O)O)ccc2c1O` had a pKd in assay [1] of 1.81.

As for `CCc1cc(CC(NC(C)=O)C(=O)NCCCCOc2ccc(Br)c(O)c2C(=O)OC)ccc1N(C(=O)C(=O)O)c1ccccc1C(=O)O` (stereo not drawn), the pKi in assay [2] is 5.59; in assay [3], 6.41.
